Source: article PMC10706804, “Synthesis and Characterization of a New Class of Chromene-Azo Sulfonamide Hybrids as Promising Anticancer Candidates with the Exploration of Their EGFR, hCAII, and MMP-2 Inhibitors Based on Molecular Docking Assays” (International Journal of Molecular Sciences, 2023)
Where “and” joins values, the source holds several entries; their conditions need not be identical. Equal values may be shown once.

Legend:
[1] = test system: human liver carcinoma (HepG-2); experiment: MTT cytotoxicity, HepG-2; type: cell-based
Excerpt: (§1) Three human tumorous cell lines—human colon carcinoma (HCT-116), human liver carcinoma (HepG-2), and human breast adenocarcinoma (MCF-7)—were subjected to cytotoxic behavior, employing the MTT analysis. Moreover, a normotoxicity assessment was employed against normal Vero cell line (African Green Monkey Kidney cells) for selected active compounds to determine their therapeutic safety. […] The inhibitory performance of derivatives 1a–e, 2a–e, 7a–g, 8, and 11a–e, and its derived relation to the cell proliferation of these three cancers, are described in Table 1 and Figure 2. […] Characteristically, the inhibitory activity was enhanced via incorporating the azo moieties in compounds 2a–b.
(§2) The cytotoxic activity was appraised using the 3-(4,5-dimethylthiazol-2-yl)-2,5-diphenyl-tetrazolium bromide (MTT) colorimetric assay as reported previously.

[2] = test system: human breast adenocarcinoma (MCF-7); experiment: MTT cytotoxicity, MCF-7; type: cell-based
Excerpt: as §1, §2

[3] = test system: human colon carcinoma (HCT-116); experiment: MTT cytotoxicity, HCT-116; type: cell-based; details: HCT-116 cells
Excerpt: as §1, §2

EGFR = target: T1, EGFR (Homo sapiens, UniProt P00533); experiment: EGFR kinase assay kit inhibition; type: biochemical
T1 construct: purchased BPS Bioscience 40321
T1 sequence (P00533 25-1210): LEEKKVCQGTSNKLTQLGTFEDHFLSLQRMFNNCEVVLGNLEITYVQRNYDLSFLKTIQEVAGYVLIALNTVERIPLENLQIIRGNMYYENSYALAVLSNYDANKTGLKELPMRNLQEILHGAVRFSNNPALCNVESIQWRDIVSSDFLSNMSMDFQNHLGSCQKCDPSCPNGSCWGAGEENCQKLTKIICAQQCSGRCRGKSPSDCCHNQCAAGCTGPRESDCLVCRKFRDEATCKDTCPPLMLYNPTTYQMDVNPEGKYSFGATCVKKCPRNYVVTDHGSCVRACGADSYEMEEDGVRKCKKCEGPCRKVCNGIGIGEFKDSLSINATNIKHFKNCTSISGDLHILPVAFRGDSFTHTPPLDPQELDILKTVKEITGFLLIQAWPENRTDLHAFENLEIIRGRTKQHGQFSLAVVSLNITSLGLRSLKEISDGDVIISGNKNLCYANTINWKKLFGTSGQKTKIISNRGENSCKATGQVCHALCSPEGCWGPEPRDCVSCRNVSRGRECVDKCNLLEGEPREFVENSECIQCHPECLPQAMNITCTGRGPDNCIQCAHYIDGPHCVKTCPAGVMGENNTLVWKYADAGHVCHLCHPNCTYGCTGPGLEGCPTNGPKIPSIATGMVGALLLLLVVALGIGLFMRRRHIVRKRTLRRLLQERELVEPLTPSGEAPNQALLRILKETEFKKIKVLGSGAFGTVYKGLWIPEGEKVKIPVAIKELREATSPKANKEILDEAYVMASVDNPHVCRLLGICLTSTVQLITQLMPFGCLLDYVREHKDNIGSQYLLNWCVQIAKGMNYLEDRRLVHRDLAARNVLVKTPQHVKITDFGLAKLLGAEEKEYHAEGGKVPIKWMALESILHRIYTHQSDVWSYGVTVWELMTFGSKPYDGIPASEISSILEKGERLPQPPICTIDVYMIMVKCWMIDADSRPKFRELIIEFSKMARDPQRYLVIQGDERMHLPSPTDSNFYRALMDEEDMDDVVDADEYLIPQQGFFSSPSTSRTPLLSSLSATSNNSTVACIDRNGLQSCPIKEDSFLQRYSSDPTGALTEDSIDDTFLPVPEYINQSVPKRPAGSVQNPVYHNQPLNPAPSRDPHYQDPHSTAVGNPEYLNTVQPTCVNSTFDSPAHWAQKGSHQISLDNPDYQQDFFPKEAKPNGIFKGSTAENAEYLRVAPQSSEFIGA
Method: After ADP is converted into ATP, ATP can be used as the substrate of the luciferase-catalyzed reaction to generate an optical signal, which is positively correlated with kinase activity. […] The plate was incubated at 30 °C for 40 min.

cytosolic hCA II = target: T2, cytosolic hCA II (Bos taurus, UniProt P00921); experiment: CA-II inhibition assay (esterase activity, 4-NPA); type: biochemical, bovine; details: reduction in esterase activity, 4-NPA substrate; read-out: IC50 against hCA II
T2 construct: purchased Sigma–Aldrich C2624
T2 sequence (P00921 whole entry): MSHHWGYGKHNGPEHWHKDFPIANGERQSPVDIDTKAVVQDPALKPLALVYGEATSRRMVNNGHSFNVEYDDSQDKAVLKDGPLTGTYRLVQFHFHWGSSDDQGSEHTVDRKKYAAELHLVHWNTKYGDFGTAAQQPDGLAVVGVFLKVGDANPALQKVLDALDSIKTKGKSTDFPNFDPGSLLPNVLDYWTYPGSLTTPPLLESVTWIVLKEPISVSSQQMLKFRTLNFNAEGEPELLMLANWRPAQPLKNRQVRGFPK
Method: The CA-II inhibition assay for the analyzed molecules was performed based on the measurement of the reduction in esterase activity on the substrate p-nitrophenyl acetate (4-NPA). Briefly, the total mixture volume was 200 µL in a well containing 140 µL (20 mM HEPES) Tris buffer (pH 7.4), 20 µL of the enzyme (from bovine, Sigma–Aldrich, C2624, St. Louis, MO, USA), and 20 µL (0.5 mg/mL in DMSO) of the investigated derivatives, which were mixed and incubated at 25 °C for 15 min. […] The results, attained after the reactions were completed in triplicate, were quantified by the equation given below. The percent inhibition for each sample was calculated as Inhibition (%) = [(C − T)/C] × 100, where C (i.e., control) = total enzyme activity without inhibitor and T (i.e., test sample) = activity in the presence of test compound.

MMP-2 = target: T3, MMP-2 (Homo sapiens, UniProt P08253); experiment: MMP-2 Inhibitor Screening Assay Kit (colorimetric); details: for IC50: IC50 on MMP-2, MMP-2 inhibitor screening kit; for anti-MMP-2 inhibition at the first concentration: first concentration of two-fold serial dilutions
T3 sequence (P08253 110-660): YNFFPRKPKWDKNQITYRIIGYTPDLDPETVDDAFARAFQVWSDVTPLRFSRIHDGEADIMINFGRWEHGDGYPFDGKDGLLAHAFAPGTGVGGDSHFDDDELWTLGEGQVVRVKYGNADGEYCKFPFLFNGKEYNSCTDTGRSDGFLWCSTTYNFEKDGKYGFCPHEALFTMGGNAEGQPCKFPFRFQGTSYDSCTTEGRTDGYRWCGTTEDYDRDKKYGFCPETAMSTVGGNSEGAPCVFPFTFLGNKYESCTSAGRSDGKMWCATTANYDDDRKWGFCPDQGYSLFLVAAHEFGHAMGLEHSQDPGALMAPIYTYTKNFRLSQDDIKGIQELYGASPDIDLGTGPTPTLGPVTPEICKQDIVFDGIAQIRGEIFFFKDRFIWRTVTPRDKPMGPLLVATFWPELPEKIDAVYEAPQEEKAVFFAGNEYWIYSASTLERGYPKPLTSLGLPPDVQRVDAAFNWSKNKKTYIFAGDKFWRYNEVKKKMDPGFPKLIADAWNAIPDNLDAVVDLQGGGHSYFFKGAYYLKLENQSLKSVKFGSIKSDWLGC

[4] = test system: normal Vero cell line (Vero CCL-81); experiment: Normotoxicity assessment, normal Vero cell line; type: cell-based, African Green Monkey; details: Chlorocebus sabaeus; normal Vero CCL-81 cells, cytotoxicity
Excerpt: as §1, §2

[5] = Homo sapiens, HepG2, HepG-2 cells
[6] = Homo sapiens, MCF7, MCF-7 cells

Row | Structure (SMILES) | IC50 [1, 5] | IC50 [2, 6] | IC50 ([3]; Homo sapiens) | IC50 (EGFR) | IC50 (cytosolic hCA II) | IC50 (MMP-2) | anti-MMP-2 inhibition at the first concentration (MMP-2) | IC50 ([1]; HepG-2 cells) | IC50 (µM) HCT-116 [3] | IC50 [4] | IC50 ([2]; MCF-7 cells) | IC50 [3]
1 | CCOC(=O)C1=C(N)Oc2cc(O)c(/N=N/c3ccc(S(N)(=O)=O)cc3)cc2C1c1ccccc1 (centres unmarked) [7a] | 3.92 ± 0.09 µM | 13.05 ± 0.12 µM | 6.82 ± 0.19 µM | 23.4 µM | 301 µM | ~113 µM and 113 µM | ~73.89% |  |  |  |  | 
2 | CCOC(=O)C1=C(N)Oc2cc(O)c(/N=N/c3ccc(S(N)(=O)=O)cc3)cc2C1c1ccc(C)cc1 (centres unmarked) [7b] | 51.9 µM | 29.5 ± 3.29 µM | 17.3 ± 4.29 µM |  | 711 µM |  |  | 45.7 ± 2.88 µM |  |  |  | 
3 | CCOC(=O)C1=C(N)Oc2cc(O)c(/N=N/c3ccc(S(N)(=O)=O)cc3)cc2C1c1ccc(OC)cc1 (centres unmarked) [7c] | 34.9 µM | 104 ± 2.65 µM | 70.8 ± 1.85 µM |  |  |  |  | 51.8 ± 1.02 µM |  |  |  | 
4 | CCOC(=O)C1=C(N)Oc2cc(O)c(/N=N/c3ccc(S(N)(=O)=O)cc3)cc2C1c1ccc([N+](=O)[O-])cc1 (centres unmarked) [7d] | 45.9 µM | 97.9 ± 3.08 µM | 114 ± 5.34 µM |  |  |  |  | 34.9 ± 2.79 µM |  |  |  | 
5 | CCOC(=O)C1=C(N)Oc2cc(O)c(/N=N/c3ccc(S(N)(=O)=O)cc3)cc2C1c1ccc(F)cc1 (centres unmarked) [7e] | 2.92 ± 3.52 µM | 6.15 ± 1.23 µM | 8 ± 3.45 µM |  |  |  |  |  |  |  |  | 
6 | CCOC(=O)C1=C(N)Oc2cc(O)c(/N=N/c3ccc(S(N)(=O)=O)cc3)cc2C1c1ccc(Cl)cc1 (centres unmarked) [7f] | 1.63 µM | 3.93 ± 0.09 µM | 3.57 ± 0.11 µM | 12.7 µM | 164 µM | ~64.8 µM and 64.8 µM | approximately 80.93% | 1.74 ± 0.07 µM | good potency |  |  | 
7 | CCOC(=O)C1=C(N)Oc2cc(O)c(/N=N/c3ccc(S(N)(=O)=O)cc3)cc2C1c1ccc(Cl)cc1Cl (centres unmarked) [7g] | 1.74 µM | 1.72 ± 2.5 µM | 1.74 ± 4.06 µM |  | 314 µM |  |  | 1.63 ± 2.36 µM | good potency |  |  | 
8 | CCOC(=O)C1=C(N/C(=C(/C#N)C(=O)OCC)c2ccc(C)cc2)Oc2cc(O)c(/N=N/c3ccc(S(N)(=O)=O)cc3)cc2C1c1ccc(C)cc1 (centres unmarked) [11a] | 32.2 ± 1.79 µM | 20.8 ± 1.38 µM | 12.2 ± 0.96 µM |  |  |  |  |  |  | 139 ± 5.26 µM |  | 
9 | CCOC(=O)C1=C(N/C(=C(/C#N)C(=O)OCC)c2ccc(C)cc2)Oc2cc(O)c(/N=N/c3ccc(S(=O)(=O)NC(C)=O)cc3)cc2C1c1ccc(C)cc1 (centres unmarked) [11b] | 147 ± 6.41 µM | 66 ± 3.91 µM | 39.3 ± 2.63 µM |  |  |  |  |  |  |  |  | 
10 | CCOC(=O)C1=C(N/C(=C(/C#N)C(=O)OCC)c2ccc(C)cc2)Oc2cc(O)c(/N=N/c3ccc(S(=O)(=O)NC(=N)N)cc3)cc2C1c1ccc(C)cc1 (centres unmarked) [11c] | 73.8 ± 2.89 µM | 105 ± 5.78 µM | 79.5 ± 3.65 µM |  |  |  |  |  |  | 328 ± 8.26 µM |  | 
11 | CCOC(=O)C1=C(N/C(=C(/C#N)C(=O)OCC)c2ccc(C)cc2)Oc2cc(O)c(/N=N/c3ccc(S(=O)(=O)Nc4nccs4)cc3)cc2C1c1ccc(C)cc1 (centres unmarked) [11d] | 4.71 ± 0.47 µM | 9.13 ± 0.93 µM | 6.32 ± 0.68 µM |  | 267 µM |  |  |  |  | 278 ± 6.45 µM |  | 
12 | CCOC(=O)C1=C(N/C(=C(/C#N)C(=O)OCC)c2ccc(C)cc2)Oc2cc(O)c(/N=N/c3ccc(S(=O)(=O)Nc4cc(C)no4)cc3)cc2C1c1ccc(C)cc1 (centres unmarked) [11e] | 17.3 ± 1.06 µM | 23.6 ± 2.05 µM | 18.4 ± 1.19 µM |  |  |  |  |  |  | 162 ± 6.48 µM |  | 
13 | N.N.[Cl][Pt][Cl] [Cisplatin, reference compound] |  |  |  |  |  |  |  | 10.9 ± 0.19 µM |  |  | 14.66 ± 0.03 µM | 8.36 ± 0.07 µM
14 | COc1cccc2c1C(=O)c1c(O)c3c(c(O)c1C2=O)C[C@@](O)(C(=O)CO)C[C@@H]3O[C@H]1C[C@H](N)[C@H](O)[C@H](C)O1 [Doxorubicin, reference compound] | 0.66 ± 0.02 µM | 0.64 ± 0.03 µM | 0.9 ± 0.07 µM |  |  |  |  |  |  |  |  | 
15 | CNC(=O)c1cc(Oc2ccc(NC(=O)Nc3ccc(Cl)c(C(F)(F)F)c3)cc2)ccn1 [Sorafenib, reference compound] |  |  |  |  |  | ~12.3 µM and 12.3 µM |  |  |  |  |  | 
